Experimental data as given in patent publication US20250270576A1, “AGRICULTURAL COMPOSITIONS AND METHODS OF USING THE SAME” (Arizona Board of Regents on behalf of Arizona State …, priority 2021, published 2025).

Test system: Col-0 plants
Assay: growth of wild type plants in the presence of 2,3 butanediol
Format: in vivo, Arabidopsis thaliana
Excerpt: Top left: phenotypes of Col-0 (wild type; Arabidopsis thaliana) and genetically modified plants expressing the transgenic PROTON (H+-) pyrophosphatase in all tissues (AVP1) or in phloem cells only (pCoY), where average yields are AVP1>pCoY>Col-0 (FIG. 7). Left center: differential root acidification capacity of each genotype. Left bottom: 16S rRNA based composition of the root associated microbiomes (RAMs) through principal component analyses. Middle: Metabolomic profile of root exudates of the three plant genotypes, depicted as a heat map of relative concentration (each column a pools n>3 plants). Top right: Enrichment of proportional abundance of query and control pathways in the metagenome of rhizosphere RAMs. Middle right: Effect of exposure to 250 μM 2,3-butanediol on root development of Col-0 plants. Bottom right: mechanistic model for plant-microbe interactions at the base of phenotype enhancement and transferability.
To determine how the plant genotype can be made extensive to the RAM, we made use of a second mutant plant (pCoYMV::AVP1; pCoY hereafter), which overexpresses the H+-PPase in companion cells and sieve elements of the plant's phloem (22). […] We then assessed a second potential driver: root exudates. We determined the root exudate profiles, or exometabolome (23), of the three genotypes when grown under sterility on agar-solidified medium. […]

CC(O)C(C)O (centres unmarked) [2,3 butanediol, 2,3-butanediol]
phenotype in root development of wild type plants (wild type (Col-0) plants exposed to 250 μM 2,3-butanediol (FIG. 3)): AVP1-like, high yield phenotypes
phenotype in shoots of wild type plants (wild type (Col-0) plants grown in the presence of 2,3 butanediol, 250 μM per FIG. 3 legend): AVP1-like, high yield phenotypes
